How the values were obtained:
[1] = molecular target: T1, Tyrosine-protein phosphatase non-receptor type 11 (Homo sapiens, UniProt Q06124); assay: Inhibition of pIRS-1 peptide activated human wild type SHP2 FL (Met1 to Leu525 residues) using DiFMUP as substrate preincubated for 30 mins followed by substrate addition and measured after 30 mins by microplate reader method
T1 sequence (Q06124 whole entry): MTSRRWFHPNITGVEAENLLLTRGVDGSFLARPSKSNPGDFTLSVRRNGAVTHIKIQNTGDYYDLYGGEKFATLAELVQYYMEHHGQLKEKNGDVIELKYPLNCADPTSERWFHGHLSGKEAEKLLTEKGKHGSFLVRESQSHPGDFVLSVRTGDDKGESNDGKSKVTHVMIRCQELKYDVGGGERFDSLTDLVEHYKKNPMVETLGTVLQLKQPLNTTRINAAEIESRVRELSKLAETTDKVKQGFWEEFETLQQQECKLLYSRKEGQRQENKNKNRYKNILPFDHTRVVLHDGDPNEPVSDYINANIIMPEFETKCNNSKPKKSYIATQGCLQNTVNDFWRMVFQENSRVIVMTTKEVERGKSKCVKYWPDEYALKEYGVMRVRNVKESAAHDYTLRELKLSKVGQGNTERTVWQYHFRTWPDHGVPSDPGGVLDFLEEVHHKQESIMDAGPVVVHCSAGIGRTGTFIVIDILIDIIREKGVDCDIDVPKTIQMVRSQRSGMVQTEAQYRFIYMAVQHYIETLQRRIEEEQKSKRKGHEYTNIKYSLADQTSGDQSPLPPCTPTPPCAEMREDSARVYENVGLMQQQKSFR

[2] = Cmax in Sprague-Dawley rat at 5 mg/kg, iv and measured upto 24 hrs by LC-MS/MS analysis; type: ADME, organism-based; design: dose 5 mg/kg, time < 24 hrs, route iv; conditions: in vivo
[3] = Volume of distribution at steady state in Sprague-Dawley rat at 5 mg/kg, iv and measured upto 24 hrs by LC-MS/MS analysis; type: ADME, organism-based; conditions: in vivo, read-out: Vdss
[4] = AUC (0 to infinity) in Sprague-Dawley rat at 5 mg/kg, po and measured upto 24 hrs by LC-MS/MS analysis; type: ADME, organism-based; design: dose 5 mg/kg, time < 24 hrs, route po; conditions: in vivo
[5] = Clearance in Sprague-Dawley rat at 5 mg/kg, iv and measured upto 24 hrs by LC-MS/MS analysis; type: ADME, organism-based; conditions: in vivo
[6] = Oral bioavailability in Sprague-Dawley rat at 5 mg/kg and measured upto 24 hrs by LC-MS/MS analysis; type: ADME, organism-based; conditions: in vivo
[7] = Tmax in Sprague-Dawley rat at 5 mg/kg, po and measured upto 24 hrs by LC-MS/MS analysis; type: ADME, organism-based; conditions: in vivo
[8] = molecular target: T1, Tyrosine-protein phosphatase non-receptor type 11; assay: Inhibition of human SHP2 in human NCI-H1975 cells assessed as reduction in ERK phosphorylation by Western blot analysis; type: cell-based
[9] = molecular target: Insulin receptor (Homo sapiens) (UniProt P06213); conditions: dose 1000.0 nM
Description: Inhibition of INSR (unknown origin) at 1000 nM by KINOMEscan assay relative to control

[10] = molecular target: T2, TGF-beta receptor type-1 (Homo sapiens) (UniProt P36897); conditions: dose 1000.0 nM
T2 sequence (whole entry): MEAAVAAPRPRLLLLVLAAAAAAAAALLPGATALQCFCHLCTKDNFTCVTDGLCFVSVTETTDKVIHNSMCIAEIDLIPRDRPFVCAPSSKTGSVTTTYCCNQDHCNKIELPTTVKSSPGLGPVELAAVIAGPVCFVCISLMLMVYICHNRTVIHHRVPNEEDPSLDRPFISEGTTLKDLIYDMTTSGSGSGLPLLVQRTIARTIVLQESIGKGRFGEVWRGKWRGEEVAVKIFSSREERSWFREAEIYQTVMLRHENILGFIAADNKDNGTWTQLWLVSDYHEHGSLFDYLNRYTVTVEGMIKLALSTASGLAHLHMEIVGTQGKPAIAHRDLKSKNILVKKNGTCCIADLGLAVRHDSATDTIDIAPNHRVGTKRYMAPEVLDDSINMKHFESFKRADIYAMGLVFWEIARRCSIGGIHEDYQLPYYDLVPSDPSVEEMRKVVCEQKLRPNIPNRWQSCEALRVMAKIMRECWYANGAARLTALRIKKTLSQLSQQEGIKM
Description: Inhibition of TGFBR1 (unknown origin) at 1000 nM by KINOMEscan assay relative to control

[11] = AUC (0 to infinity) in Sprague-Dawley rat at 5 mg/kg, iv and measured upto 24 hrs by LC-MS/MS analysis; type: ADME, organism-based; design: dose 5 mg/kg, time < 24 hrs, route iv; conditions: in vivo
[12] = molecular target: Phosphatidylinositol 4-phosphate 3-kinase C2 domain-containing subunit beta (Homo sapiens) (UniProt O00750); conditions: dose 1000.0 nM
Description: Inhibition of PIK3C2B (unknown origin) at 1000 nM by KINOMEscan assay relative to control

[13] = Tmax in Sprague-Dawley rat at 5 mg/kg, iv and measured upto 24 hrs by LC-MS/MS analysis; type: ADME, organism-based; conditions: in vivo
[14] = molecular target: T1, Tyrosine-protein phosphatase non-receptor type 11; assay: Inhibition of human SHP2 in human NCI-H1975/OSIR cells assessed as reduction in ERK phosphorylation by Western blot analysis; type: cell-based
[15] = Half life in Sprague-Dawley rat at 5 mg/kg, po and measured upto 24 hrs by LC-MS/MS analysis; type: ADME, organism-based; conditions: in vivo
[16] = Half life in Sprague-Dawley rat at 5 mg/kg, iv and measured upto 24 hrs by LC-MS/MS analysis; type: ADME, organism-based; conditions: in vivo
[17] = molecular target: Serine/threonine-protein kinase 32C (Homo sapiens) (UniProt Q86UX6); conditions: dose 1000.0 nM
Description: Inhibition of YANK3 (unknown origin) at 1000 nM by KINOMEscan assay relative to control

[18] = molecular target: Dual specificity tyrosine-phosphorylation-regulated kinase 1B (Homo sapiens) (UniProt Q9Y463); conditions: dose 1000.0 nM
Description: Inhibition of DYRK1B (unknown origin) at 1000 nM by KINOMEscan assay relative to control

[19] = molecular target: T3, Serine/threonine-protein kinase STK11 (Homo sapiens) (UniProt Q15831); conditions: dose 1000.0 nM
T3 sequence (whole entry): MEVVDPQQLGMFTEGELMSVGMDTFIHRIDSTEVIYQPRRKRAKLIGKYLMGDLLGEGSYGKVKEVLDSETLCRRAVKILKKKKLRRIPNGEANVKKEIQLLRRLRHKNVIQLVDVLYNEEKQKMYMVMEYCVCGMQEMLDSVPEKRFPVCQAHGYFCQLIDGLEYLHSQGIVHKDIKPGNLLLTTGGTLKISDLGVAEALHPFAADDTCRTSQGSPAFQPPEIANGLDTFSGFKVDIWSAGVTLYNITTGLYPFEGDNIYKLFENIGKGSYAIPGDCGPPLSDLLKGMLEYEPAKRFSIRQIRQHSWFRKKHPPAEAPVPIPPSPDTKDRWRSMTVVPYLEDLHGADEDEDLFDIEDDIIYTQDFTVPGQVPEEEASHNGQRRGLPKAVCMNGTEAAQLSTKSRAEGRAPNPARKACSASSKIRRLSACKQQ
Description: Inhibition of LKB1 (unknown origin) at 1000 nM by KINOMEscan assay relative to control

[20] = Cmax in Sprague-Dawley rat at 5 mg/kg, po and measured upto 24 hrs by LC-MS/MS analysis; type: ADME, organism-based; design: dose 5 mg/kg, time < 24 hrs, route po; conditions: in vivo

Chain of Serine/threonine-protein kinase 32C (Homo sapiens) (Q86UX6 whole entry): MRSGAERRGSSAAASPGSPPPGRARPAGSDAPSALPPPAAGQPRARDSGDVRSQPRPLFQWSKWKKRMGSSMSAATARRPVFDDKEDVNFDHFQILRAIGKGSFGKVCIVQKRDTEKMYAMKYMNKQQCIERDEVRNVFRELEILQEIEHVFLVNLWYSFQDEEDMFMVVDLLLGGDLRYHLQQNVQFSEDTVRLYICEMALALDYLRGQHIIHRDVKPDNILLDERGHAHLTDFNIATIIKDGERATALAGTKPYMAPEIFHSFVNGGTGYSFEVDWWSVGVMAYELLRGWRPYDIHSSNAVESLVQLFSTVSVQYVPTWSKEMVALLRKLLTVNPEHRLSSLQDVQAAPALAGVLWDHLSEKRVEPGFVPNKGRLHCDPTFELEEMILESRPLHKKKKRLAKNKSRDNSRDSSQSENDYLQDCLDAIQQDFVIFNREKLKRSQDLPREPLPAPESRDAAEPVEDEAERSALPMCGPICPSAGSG
Chain of Insulin receptor (Homo sapiens) (P06213 28-758 limits assumed): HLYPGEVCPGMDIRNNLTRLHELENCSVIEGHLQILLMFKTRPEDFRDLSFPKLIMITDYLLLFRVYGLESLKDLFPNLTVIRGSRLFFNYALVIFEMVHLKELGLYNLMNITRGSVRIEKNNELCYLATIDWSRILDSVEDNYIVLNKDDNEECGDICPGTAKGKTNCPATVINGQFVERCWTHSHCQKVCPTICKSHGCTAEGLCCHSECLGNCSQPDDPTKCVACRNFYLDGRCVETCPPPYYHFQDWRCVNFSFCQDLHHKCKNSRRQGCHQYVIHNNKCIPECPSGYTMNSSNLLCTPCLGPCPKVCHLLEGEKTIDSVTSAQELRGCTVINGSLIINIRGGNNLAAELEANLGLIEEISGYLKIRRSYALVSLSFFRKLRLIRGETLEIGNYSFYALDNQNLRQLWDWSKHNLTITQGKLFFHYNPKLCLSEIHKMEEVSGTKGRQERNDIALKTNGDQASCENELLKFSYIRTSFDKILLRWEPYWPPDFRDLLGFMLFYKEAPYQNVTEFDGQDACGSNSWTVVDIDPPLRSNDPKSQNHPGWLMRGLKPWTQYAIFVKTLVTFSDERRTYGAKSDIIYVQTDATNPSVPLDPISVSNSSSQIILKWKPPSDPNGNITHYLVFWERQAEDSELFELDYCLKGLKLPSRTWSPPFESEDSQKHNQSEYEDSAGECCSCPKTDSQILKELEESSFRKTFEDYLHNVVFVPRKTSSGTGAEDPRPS
Chain of Insulin receptor (Homo sapiens) (P06213 763-1382 limits assumed): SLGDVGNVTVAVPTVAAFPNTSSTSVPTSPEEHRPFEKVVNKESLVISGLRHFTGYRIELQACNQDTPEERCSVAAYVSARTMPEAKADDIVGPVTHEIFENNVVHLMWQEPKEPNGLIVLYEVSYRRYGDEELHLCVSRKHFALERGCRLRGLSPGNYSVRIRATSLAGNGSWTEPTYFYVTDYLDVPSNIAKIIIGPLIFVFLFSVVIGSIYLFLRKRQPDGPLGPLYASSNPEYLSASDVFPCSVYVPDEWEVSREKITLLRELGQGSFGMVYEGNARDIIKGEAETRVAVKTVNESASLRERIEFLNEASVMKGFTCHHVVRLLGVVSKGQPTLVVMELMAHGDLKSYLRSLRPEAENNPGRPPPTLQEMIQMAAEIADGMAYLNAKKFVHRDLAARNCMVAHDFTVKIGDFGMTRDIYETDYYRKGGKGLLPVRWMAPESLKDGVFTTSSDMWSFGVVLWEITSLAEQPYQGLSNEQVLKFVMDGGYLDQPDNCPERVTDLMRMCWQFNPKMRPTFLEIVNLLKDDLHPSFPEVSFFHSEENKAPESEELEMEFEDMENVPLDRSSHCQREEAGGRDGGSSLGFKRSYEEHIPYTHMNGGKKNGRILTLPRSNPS
Chain of Dual specificity tyrosine-phosphorylation-regulated kinase 1B (Homo sapiens) (Q9Y463 whole entry, looked up): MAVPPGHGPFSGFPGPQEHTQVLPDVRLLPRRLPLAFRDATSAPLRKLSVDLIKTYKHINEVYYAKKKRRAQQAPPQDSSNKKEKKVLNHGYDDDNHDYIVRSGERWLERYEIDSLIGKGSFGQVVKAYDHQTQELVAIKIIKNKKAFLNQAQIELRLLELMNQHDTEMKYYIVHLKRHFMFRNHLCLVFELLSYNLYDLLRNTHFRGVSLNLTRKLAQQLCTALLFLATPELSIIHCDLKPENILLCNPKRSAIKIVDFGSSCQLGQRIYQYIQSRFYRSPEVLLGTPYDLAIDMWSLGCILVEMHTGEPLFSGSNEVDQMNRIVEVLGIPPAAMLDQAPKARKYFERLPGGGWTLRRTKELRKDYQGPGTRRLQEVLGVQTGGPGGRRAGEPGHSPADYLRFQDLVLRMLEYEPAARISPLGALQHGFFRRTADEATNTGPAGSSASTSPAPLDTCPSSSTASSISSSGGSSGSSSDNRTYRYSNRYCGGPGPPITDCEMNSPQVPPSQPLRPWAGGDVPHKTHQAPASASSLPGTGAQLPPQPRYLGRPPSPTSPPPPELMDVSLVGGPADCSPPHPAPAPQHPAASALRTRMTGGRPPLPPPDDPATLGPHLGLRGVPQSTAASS
Chain of Phosphatidylinositol 4-phosphate 3-kinase C2 domain-containing subunit beta (Homo sapiens) (O00750 whole entry, the tested form may be a part): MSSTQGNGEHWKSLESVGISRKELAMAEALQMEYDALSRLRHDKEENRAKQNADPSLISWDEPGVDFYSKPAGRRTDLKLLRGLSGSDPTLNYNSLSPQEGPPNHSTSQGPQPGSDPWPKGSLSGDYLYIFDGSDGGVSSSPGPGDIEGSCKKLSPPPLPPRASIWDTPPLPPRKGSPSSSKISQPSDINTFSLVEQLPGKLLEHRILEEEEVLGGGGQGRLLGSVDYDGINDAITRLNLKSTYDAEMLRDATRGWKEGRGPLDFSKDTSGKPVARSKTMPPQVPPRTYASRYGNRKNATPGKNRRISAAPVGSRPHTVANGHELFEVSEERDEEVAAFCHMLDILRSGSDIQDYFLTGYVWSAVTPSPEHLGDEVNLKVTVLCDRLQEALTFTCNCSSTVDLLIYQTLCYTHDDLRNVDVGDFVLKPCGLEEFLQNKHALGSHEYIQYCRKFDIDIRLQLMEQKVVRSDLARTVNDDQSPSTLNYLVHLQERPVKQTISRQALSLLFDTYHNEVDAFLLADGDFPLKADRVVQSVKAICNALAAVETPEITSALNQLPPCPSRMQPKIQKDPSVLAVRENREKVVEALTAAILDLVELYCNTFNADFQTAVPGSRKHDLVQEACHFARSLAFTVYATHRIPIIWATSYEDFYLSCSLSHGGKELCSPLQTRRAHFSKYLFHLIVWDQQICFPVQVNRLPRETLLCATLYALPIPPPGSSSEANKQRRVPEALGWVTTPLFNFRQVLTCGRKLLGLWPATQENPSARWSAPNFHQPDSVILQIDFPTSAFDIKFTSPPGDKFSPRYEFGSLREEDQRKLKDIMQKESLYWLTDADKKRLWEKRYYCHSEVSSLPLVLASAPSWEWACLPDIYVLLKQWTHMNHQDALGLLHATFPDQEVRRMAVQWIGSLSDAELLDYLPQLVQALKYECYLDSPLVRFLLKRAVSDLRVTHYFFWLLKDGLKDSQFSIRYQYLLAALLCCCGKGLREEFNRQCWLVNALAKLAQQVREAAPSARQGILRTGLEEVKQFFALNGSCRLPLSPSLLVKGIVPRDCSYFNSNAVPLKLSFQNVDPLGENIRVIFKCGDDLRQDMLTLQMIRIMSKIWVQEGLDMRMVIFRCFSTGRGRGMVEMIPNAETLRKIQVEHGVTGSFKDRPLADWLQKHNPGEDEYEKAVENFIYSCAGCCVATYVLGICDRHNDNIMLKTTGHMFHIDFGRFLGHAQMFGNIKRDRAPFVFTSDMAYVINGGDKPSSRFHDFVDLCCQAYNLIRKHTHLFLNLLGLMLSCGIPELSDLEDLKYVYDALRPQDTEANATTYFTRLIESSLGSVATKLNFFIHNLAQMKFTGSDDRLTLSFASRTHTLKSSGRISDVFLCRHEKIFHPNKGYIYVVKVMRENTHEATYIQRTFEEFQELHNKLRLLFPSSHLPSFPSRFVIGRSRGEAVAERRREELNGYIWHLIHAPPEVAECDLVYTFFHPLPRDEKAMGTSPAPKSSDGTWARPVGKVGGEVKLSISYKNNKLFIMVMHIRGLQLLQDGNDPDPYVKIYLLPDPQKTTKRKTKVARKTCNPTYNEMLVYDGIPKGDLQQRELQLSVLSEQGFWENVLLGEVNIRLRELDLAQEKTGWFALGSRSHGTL

| SMILES | IC50 [1] [µM] | also measured |
| --- | --- | --- |
| CC(=O)N1CCN(c2ncc(C(=O)Nc3ccccc3)c(N)n2)CC1 | 6.7 | – |
| COc1ccc(N2CCN(c3ncc(C(=O)Nc4ccccc4)c(N)n3)CC2)cc1 | > 100 | – |
| CCOC(=O)C1CCN(c2ncc(C(=O)Nc3ccccc3)c(N)n2)CC1 | 2.1 | – |
| Nc1nc(N2CCc3ccccc3C2)ncc1C(=O)Nc1ccccc1 | 100 | – |
| Nc1nc(N2CCCC2)ncc1C(=O)Nc1ccccc1 | 50 | – |
| CC(C)N1CCN(c2ncc(C(=O)Nc3ccccc3)c(N)n2)CC1 | 9.3 | – |
| CC1(N)CCN(c2ncc(C(=O)NCc3ccccn3)c(N)n2)CC1 | 8.1 | – |
| CC1(N)CCN(c2ncc(C(=O)Nc3ccc4ccccc4c3)c(N)n2)CC1 | 8 | – |
| Nc1nc(N2CCN(c3ccccn3)CC2)ncc1C(=O)Nc1ccccc1 | > 100 | – |
| CC1(N)CCN(c2ncc(C(=O)Nc3ccc(Cl)c(Cl)c3)c(N)n2)CC1 | 0.25 | – |
| CCN1CCN(c2ncc(C(=O)Nc3ccccc3)c(N)n2)CC1 | 10.2 | – |
| CC(C)NC(=O)CN1CCN(c2ncc(C(=O)Nc3ccccc3)c(N)n2)CC1 | 5.6 | – |
| CC1(N)CCN(c2ncc(C(=O)Nc3ccc([N+](=O)[O-])cc3)c(N)n2)CC1 | 2 | – |
| CC1(N)CCN(c2ncc(C(=O)Nc3ccc(F)cc3)c(N)n2)CC1 | 0.62 | – |
| CC1(N)CCN(c2ncc(C(=O)Nc3ccccc3)c(N)n2)CC1 | 1.4 | – |
| Nc1nc(N2CCC3(CC2)OCCO3)ncc1C(=O)Nc1ccccc1 | 12.8 | – |
| CCOC(=O)N1CCN(c2ncc(C(=O)Nc3ccccc3)c(N)n2)CC1 | 8.5 | – |
| CC1(N)CCN(c2ncc(C(=O)Nc3ccccn3)c(N)n2)CC1 | 0.8 | – |
| Nc1nc(N2CCN(c3ccccc3)CC2)ncc1C(=O)Nc1ccccc1 | > 100 | – |

| SMILES | IC50 [1] [µM] | also measured |
| --- | --- | --- |
| COc1ccccc1CN1CCCC(c2[nH]ccc2C(N)=O)C1 (stereo unspecified) | 19 | – |
| Nc1nc(N2CCOCC2)ncc1C(=O)Nc1ccccc1 | 9.5 | – |
| CC1(N)CCN(c2ncc(C(=O)Nc3cccc4ccccc34)c(N)n2)CC1 | 100 | – |
| CN(Cc1ccccc1)c1ncc(C(=O)Nc2ccccc2)c(N)n1 | > 100 | – |
| Nc1nc(N2CCN(C3CCCCC3)CC2)ncc1C(=O)Nc1ccccc1 | 100 | – |
| CCCN1CCN(c2ncc(C(=O)Nc3ccccc3)c(N)n2)CC1 | 11.5 | – |
| COc1ccc2nc(C)cc(Nc3ccccc3OC)c2c1 | 13.5 | – |
| COc1cccc(OC)c1NC(=O)c1cnc(N2CCC(C)(N)CC2)nc1N | 12.5 | – |
| Nc1nc(N2CCSCC2)ncc1C(=O)Nc1ccccc1 | 5.6 | – |
| CC1(N)CCN(c2ncc(C(=O)Nc3ccc4c(c3)Cc3ccccc3-4)c(N)n2)CC1 | 100 | – |
| CC1(N)CCN(c2ncc(C(=O)Nc3cccnc3)c(N)n2)CC1 | 0.089 | Cmax [2]: 854 ng/mL; Vd [3]: 14 L/kg; AUC(0-inf) [4]: 1040 ng·h/mL; clearance [5]: 44.8 mL/min/kg; bioavailability [6]: 55.1%; Tmax [7]: 2.17 h; IC50 [8]: 0.59 µM; inhibition [9]: 69%; inhibition [10]: 64%; AUC(0-inf) [11]: 1880 ng·h/mL; inhibition [12]: > 35%; Tmax [13]: 4.98 min; IC50 [14]: 0.63 µM; half-life [15]: 4.77 h; half-life [16]: 5.31 h; inhibition [17]: 54%; inhibition [18]: 50%; inhibition [19]: > 35%; Cmax [20]: 101 ng/mL |
| CC(C)(C)OC(=O)N1CCN(c2ncc(C(=O)Nc3ccccc3)c(N)n2)CC1 | 35 | – |
| CC1(N)CCN(c2ncc(C(=O)Nc3cc(Cl)cc(Cl)c3)c(N)n2)CC1 | 3.4 | – |
| COc1ccc(NC(=O)c2cnc(N3CCC(C)(N)CC3)nc2N)cc1 | 1.9 | – |
| Nc1nc(N2CCN(C(=O)c3ccco3)CC2)ncc1C(=O)Nc1ccccc1 | 100 | – |
| CCCCN(C)c1ncc(C(=O)Nc2ccccc2)c(N)n1 | 25 | – |
| CC1(N)CCN(c2ncc(C(=O)Nc3cccc(-c4ccccc4)c3)c(N)n2)CC1 | > 100 | – |
| COc1ccc(NC(=O)c2cnc(N3CCC(C)(N)CC3)nc2N)cc1OC | 2.3 | – |

— ChEMBL document CHEMBL5360563, “Discovery of a potent and selective allosteric inhibitor targeting the SHP2 tunnel site for RTK-driven cancer treatment” (Eur J Med Chem, 2023)
